Earlier results on 4 molecules are cited in patent US8871277B2, “Particulate wood preservative and method for producing the same” (Osmose, Inc., priority 2003, dated 2014).

Read-outs that look alike come from different tables or passages of the source.

For data set [1] the following is noted: solubility product constant.
The conditions of data set [2]: Synthetic Precipitation Leaching Procedure.

For the molecule `[Cu]` [copper], the solubility of copper (pH 4) is 640 ppm, the solubility of copper (pH 7) is listed as 2 ppm and the solubility of copper result (pH 10) is recorded as “about 0.01 ppm”.
Consider copper 8-quinolinolate, for which the Ksp in data set [1] is reported as 2 E−30.
Turning to copper citrate, in data set [2], the “copper in leachate from treated wood” value is recorded as 62 mg copper per liter.
In the case of copper sulfide, the Ksp in data set [1] is 6 E−36.
